# Results reported in patent US20100278733A1, “COMPOSITION FOR DIAGNOSIS OF AMYLOID-RELATED DISEASE” (priority 2007, published 2010).
# Columns and labels:
# Aβ(1-40) aggregate = target: T1, Aβ(1-40) aggregate (Homo sapiens, UniProt P05067); assay: In-vitro binding experiment of chalcone derivatives using Aβ aggregate (Reference Example 1); conditions: in words; radioactivity on filter in presence vs absence of Aβ aggregate, FIG. 14; compound numbers of Reference Example 1
# T1 construct: Amyloid β protein (Human, 1-40) [HCl form]; purchased Peptide Institute, Inc
# T1 sequence (P05067 672-711 limits assumed): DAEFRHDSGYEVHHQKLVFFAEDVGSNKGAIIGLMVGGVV
# Method: As a radioactive iodine-125 (^125I), IODINE-125 (74 MBq) manufactured by Amersham Biosciences was used. Reverse phase HPLC was performed at a flow rate of 1.0 mL/min using Cosmosil 5C18-AR Column (4.6×150 mm) manufactured by Nacalai Tesque Inc. and ultrapure water (A) and acetonitrile (B) (A:B=40:60) as an elution solvent. ^1H-NMR was measured using Varian Gemini 300 and tetramethylsilane as an internal standard substance. Mass spectrometry was performed using JEOL IMS-DX300. Amyloid β protein (Human, 1-40) [HCl form] and Amyloid β protein (Human, 1-42) [TFA form] were purchased from Peptide Institute, Inc., and special grade reagents were used as other reagents.
# The Aβ aggregate was dissolved in a buffer containing 10 mM sodium phosphate and 1 mM EDTA (pH 7.4) at a concentration of 0.5 mg/mL, and the mixture was incubated at 37° C. for 36 to 42 h. The binding experiment was performed using 12×75 mm borosilicate glass tubes. 900 μL of 10% ethanol solution, 50 μL (57 nM) of an Aβ(1-40) aggregate solution, and 50 μL of [^125I]Compound 7 or 12 having various concentrations were mixed, and the mixture was allowed to stand at room temperature for 3 h. […] The radioactivities of substances remaining in the filter used for filtration were measured with a γ counter.
# Aβ(1-42) aggregate [1] = target: T2, Aβ(1-42) aggregate (Homo sapiens, UniProt P05067); assay: Binding inhibition experiment using Aβ(1-42) aggregate, Ki values (Example 2); conditions: radioactive ligand [^125I]CL-NMe2; mean ± standard error of 3 experiments (compound 4: 6 experiments); compound numbers of Example 2; read-out: Ki values calculated by inhibition experiment
# T2 construct: Amyloid β protein (Human, 1-42) [TFA form] was purchased from Peptide Institute, Inc; purchased Peptide Institute, Inc
# T2 sequence (P05067 672-713 limits assumed): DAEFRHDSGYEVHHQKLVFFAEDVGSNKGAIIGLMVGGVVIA
# Method: As a radioactive iodine-125 (^125I), Iodine-125 (3.7 GBq/mL) manufactured by MP Biomedicals, Inc. was used. Reverse phase HPLC was performed at a flow rate of 1.0 mL/min using a Cosmosil 5C18-AR-II column (4.6×150 mm) manufactured by Nacalai Tesque Inc. and ultrapure water:acetonitrile=3:7 as an elution solvent. ^1HNMR was measured using Varian Gemini 300 and tetramethylsilane as an internal standard substance. Mass spectrometry was performed using JEOL IMS-DX300. Preparative TLC was performed using 12 PLC plates 20×20-cm-Silica gel 60 F254, 2 mm manufactured by MERCK. Amyloid β protein (Human, 1-42) was purchased from Peptide Institute, Inc., and special grade reagents were used as other reagents.
# (§1) Aβ(1-42) was dissolved in 10 mM phosphate buffer containing 1 mM EDTA (pH 7.4) at a concentration of 0.25 mg/mL, and the mixture was incubated at 37° C. for 42 h to prepare an Aβ(1-42) aggregate.
# […] of 10% EtOH solution, […] of a solution of [^125I]4-diethylamino-4′-iodochalcone ([^125I]CL-NMe2) in 10% ethanol, and […] of a sample solution at various concentrations (0 to 20 mM) were mixed, […] of an Aβ(1-42) aggregate solution was finally added, and the mixture was allowed to stand at room temperature for 3 h. Aβ(1-42) aggregate-bound compounds and nonbound compounds were separated with a Brandel M-24R cell harvester using a Whatman GF/B filter. Radioactivities remaining on the filter after filtration were measured with a γ-counter, and inhibition curves were created using Graph Pad Prism 4.0 to calculate inhibition constants (Ki values).
# [2] = test system: senile plaque amyloid and vascular amyloid; assay: Fluorescence staining experiment using brain tissue sections of Alzheimer's disease model mice; type: binding, APP/PS1 double transgenic mouse; conditions: in words; 100 μM in 50% aqueous ethanol, fluorescence microscope, FIG. 11
# Method: As an Alzheimer's disease model mouse, APP/PS1 double transgenic mouse was used. The brain was removed, immobilized with 10% formaldehyde, dehydrated with alcohol and xylene, and then paraffin-embedded. The paraffin-embedded brain tissue was cut into a 5-μm section, and the section was treated with xylene, alcohol, and water and deparaffinized. The section was incubated in PBS for 30 min and then in solutions of various chalcone derivatives (100 μM) in 50% aqueous ethanol for 10 min. The section was washed with 50% ethanol and PBS and then examined with a fluorescence microscope (Leica TCS SP2).
# [3] = In-vivo radioactivity distribution experiment using normal mice (Example 2); conditions: Example 2 numbering; for In-vivo radioactivity distribution: blood / In-vivo radioactivity distribution: brain / In-vivo radioactivity distribution: heart / In-vivo radioactivity distribution: intestine / In-vivo radioactivity distribution: kidney / In-vivo radioactivity distribution: liver / In-vivo radioactivity distribution: lung / In-vivo radioactivity distribution: pancreas / In-vivo radioactivity distribution: spleen / In-vivo radioactivity distribution: stomach: normal mice, intravenous
# Method: Radioactive iodine labeling compounds were diluted with physiological saline containing 10% EtOH. To each of four or five 5-week-old male ddY mice (20 to 25 g) per group, […] of a labeled compound, [^125I]Compound 7, 10, 13, or 14 (0.2 to 0.4 mCi), was administered from the caudal vein. Animals were decapitated at 2, 10, 30, or 60 min, blood was collected, the major organs were isolated, and then weights and radioactivities thereof were measured.
# Aβ(1-42) aggregate [4] = target: T2, Aβ(1-42) aggregate; assay: Examination of binding site by binding inhibition experiment using Aβ(1-42) aggregate (Example 2); conditions: FIG. 10, compound numbers of Example 2, read-out: Ki for inhibition of binding of [^125I]CL-NMe2 to the Aβ(1-42) aggregate
# Method: as §1
# […] of 10% EtOH solution, […] of [^125I]CL-NMe2 solution, […] of a solution of congo red, thioflavine T, or compound 14 at various concentrations (0 to 20 mM) were mixed, […] of an Aβ(1-42) aggregate solution was finally added, and the mixture was allowed to stand at room temperature for 3 h. Aβ(1-42) aggregate-bound compounds and nonbound compounds were separated with a Brandel M-24R cell harvester using a Whatman GF/B filter. Radioactivities remaining on the filter after filtration were measured with a γ-counter, and inhibition curves were created using Graph Pad Prism 4.0 to calculate inhibition constants.
structure (smiles),measurement,setting,value
CN(C)c1ccc(/C=C/C(=O)c2ccc(I)cc2)cc1 [Compound 12 in Reference Example 1],binding property to the Aβ aggregate,Aβ(1-40) aggregate,strong binding property
"CN(C)c1ccc(C=CC(=O)c2ccc(I)s2)cc1 [Compound 14 in Example 2, 1-(5-iodo-2-thienyl)-3-(4-dimethylaminophenyl)-prop-2-en-1-one]",Ki,Aβ(1-42) aggregate [1],3.9 ± 0.4 nM
same,binding property to senile plaque amyloid and vascular amyloid on brain tissue sections,[2],stronger than that of fluorine-containing chalcone derivatives
same,stability in the organism,"[3]; in words: radioactivity accumulation in the stomach, retention in blood, deiodination",instability in the organism
same,In-vivo radioactivity distribution: blood,[3]; 2 min,4.91 (0.71) percent of the dose/g
same,In-vivo radioactivity distribution: brain,[3]; 2 min,2.40 (0.30) percent of the dose/g
same,In-vivo radioactivity distribution: heart,[3]; 2 min,5.05 (0.95) percent of the dose/g
same,In-vivo radioactivity distribution: intestine,[3]; 2 min,1.73 (0.21) percent of the dose/g
same,In-vivo radioactivity distribution: kidney,[3]; 2 min,7.41 (1.54) percent of the dose/g
same,In-vivo radioactivity distribution: liver,[3]; 2 min,9.57 (2.00) percent of the dose/g
same,In-vivo radioactivity distribution: lung,[3]; 2 min,8.29 (0.99) percent of the dose/g
same,In-vivo radioactivity distribution: pancreas,[3]; 2 min,3.82 (0.57) percent of the dose/g
same,In-vivo radioactivity distribution: spleen,[3]; 2 min,4.05 (0.63) percent of the dose/g
same,In-vivo radioactivity distribution: stomach,[3]; 2 min,1.21(0.27) percent of the dose
same,In-vivo radioactivity distribution: blood,[3]; 10 min,3.58 (0.35) percent of the dose/g
same,In-vivo radioactivity distribution: brain,[3]; 10 min,0.75 (0.31) percent of the dose/g
same,In-vivo radioactivity distribution: heart,[3]; 10 min,3.02 (0.60) percent of the dose/g
same,In-vivo radioactivity distribution: intestine,[3]; 10 min,2.57 (0.53) percent of the dose/g
same,In-vivo radioactivity distribution: kidney,[3]; 10 min,4.66 (0.68) percent of the dose/g
same,In-vivo radioactivity distribution: liver,[3]; 10 min,7.10 (1.08) percent of the dose/g
same,In-vivo radioactivity distribution: lung,[3]; 10 min,5.17 (0.69) percent of the dose/g
same,In-vivo radioactivity distribution: pancreas,[3]; 10 min,1.94 (0.80) percent of the dose/g
same,In-vivo radioactivity distribution: spleen,[3]; 10 min,5.48 (1.02) percent of the dose/g
same,In-vivo radioactivity distribution: stomach,[3]; 10 min,5.29 (1.24) percent of the dose
same,In-vivo radioactivity distribution: blood,[3]; 30 min,2.92 (0.60) percent of the dose/g
same,In-vivo radioactivity distribution: brain,[3]; 30 min,0.31 (0.04) percent of the dose/g
same,In-vivo radioactivity distribution: heart,[3]; 30 min,1.48 (0.78) percent of the dose/g
same,In-vivo radioactivity distribution: intestine,[3]; 30 min,4.05 (0.99) percent of the dose/g
same,In-vivo radioactivity distribution: kidney,[3]; 30 min,4.31 (1.01) percent of the dose/g
same,In-vivo radioactivity distribution: liver,[3]; 30 min,5.95 (1.19) percent of the dose/g
same,In-vivo radioactivity distribution: lung,[3]; 30 min,3.53 (0.35) percent of the dose/g
same,In-vivo radioactivity distribution: pancreas,[3]; 30 min,1.95 (0.32) percent of the dose/g
same,In-vivo radioactivity distribution: spleen,[3]; 30 min,5.01 (1.72) percent of the dose/g
same,In-vivo radioactivity distribution: stomach,[3]; 30 min,9.81 (6.47) percent of the dose
same,In-vivo radioactivity distribution: blood,[3]; 60 min,2.63 (0.45) percent of the dose/g
same,In-vivo radioactivity distribution: brain,[3]; 60 min,0.21 (0.02) percent of the dose/g
same,In-vivo radioactivity distribution: heart,[3]; 60 min,1.65 (0.24) percent of the dose/g
same,In-vivo radioactivity distribution: intestine,[3]; 60 min,4.69 (1.64) percent of the dose/g
same,In-vivo radioactivity distribution: kidney,[3]; 60 min,2.44 (0.35) percent of the dose/g
same,In-vivo radioactivity distribution: liver,[3]; 60 min,4.96 (1.27) percent of the dose/g
same,In-vivo radioactivity distribution: lung,[3]; 60 min,2.87 (0.46) percent of the dose/g
same,In-vivo radioactivity distribution: pancreas,[3]; 60 min,1.86 (0.27) percent of the dose/g
same,In-vivo radioactivity distribution: spleen,[3]; 60 min,3.03 (0.31) percent of the dose/g
same,In-vivo radioactivity distribution: stomach,[3]; 60 min,8.73 (4.21) percent of the dose
same,Ki,Aβ(1-42) aggregate [4],4 nM
